{
  "source": "PubChem BioAssay AID1745844",
  "about": "(Carcinogenic Potency Database (CPDB), 2022)",
  "system": "rodent lifetime carcinogenesis bioassay, tumor incidence TD50",
  "experiment": "chronic cancer bioassays in animals – CPDB, compiled studies (AID 1745844)",
  "settings": "by gavage",
  "note": "Where “and” joins values, the source holds several entries; their conditions need not be identical. Equal entries are not always repeated.",
  "data": [
    {"smiles": "c1cc(OCC2CO2)cc(OCC2CO2)c1", "note": "(stereo not drawn)", "values": [
      {"measurement": "TD50", "setting": "mouse, strain B6C3F1, females, site: any site (literature study), lesion: several types, types named in the paper, dosed 103 weeks, study length 105 weeks", "value": 32.3, "unit": "mg/kg/day"},
      {"measurement": "TD50", "setting": "mouse, strain B6C3F1, females, site: liver, lesion: hepatocellular adenoma + hepatocellular carcinoma + neoplastic nodule, dosed 103 weeks, study length 105 weeks", "value": 169, "unit": "mg/kg/day"},
      {"measurement": "TD50", "setting": "mouse, strain B6C3F1, females, site: liver, lesion: hepatocellular carcinoma, dosed 103 weeks, study length 105 weeks", "value": 221, "unit": "mg/kg/day"},
      {"measurement": "TD50", "setting": "mouse, strain B6C3F1, females, site: lung, lesion: alveolar/bronchiolar adenoma + alveolar/bronchiolar carcinoma, dosed 103 weeks, study length 105 weeks", "value": 4790, "unit": "mg/kg/day"},
      {"measurement": "TD50", "setting": "mouse, strain B6C3F1, females, site: stomach, lesion: papillomatosis + squamous-cell carcinoma + squamous-cell papilloma, dosed 103 weeks, study length 105 weeks", "value": 17.9, "unit": "mg/kg/day"},
      {"measurement": "TD50", "setting": "mouse, strain B6C3F1, females, site: stomach, lesion: papillomatosis + squamous-cell papilloma, dosed 103 weeks, study length 105 weeks", "value": 48.2, "unit": "mg/kg/day"},
      {"measurement": "TD50", "setting": "mouse, strain B6C3F1, females, site: stomach, lesion: squamous-cell carcinoma, dosed 103 weeks, study length 105 weeks", "value": 36.3, "unit": "mg/kg/day"},
      {"measurement": "TD50", "setting": "mouse, strain B6C3F1, males, site: any site (literature study), lesion: several types, types named in the paper, dosed 103 weeks, study length 104 weeks", "value": 36.6, "unit": "mg/kg/day"},
      {"measurement": "TD50", "setting": "mouse, strain B6C3F1, males, site: liver, lesion: hepatocellular adenoma + hepatocellular carcinoma + neoplastic nodule, dosed 103 weeks, study length 104 weeks", "value": 84.7, "unit": "mg/kg/day"},
      {"measurement": "TD50", "setting": "mouse, strain B6C3F1, males, site: lung, lesion: alveolar/bronchiolar adenoma + alveolar/bronchiolar carcinoma, dosed 103 weeks, study length 104 weeks", "value": 1350, "unit": "mg/kg/day"},
      {"measurement": "TD50", "setting": "mouse, strain B6C3F1, males, site: stomach, lesion: papillomatosis + squamous-cell carcinoma + squamous-cell papilloma, dosed 103 weeks, study length 104 weeks", "value": 37.8, "unit": "mg/kg/day"},
      {"measurement": "TD50", "setting": "mouse, strain B6C3F1, males, site: stomach, lesion: papillomatosis + squamous-cell papilloma, dosed 103 weeks, study length 104 weeks", "value": 145, "unit": "mg/kg/day"},
      {"measurement": "TD50", "setting": "mouse, strain B6C3F1, males, site: stomach, lesion: squamous-cell carcinoma, dosed 103 weeks, study length 104 weeks", "value": 55.5, "unit": "mg/kg/day"},
      {"measurement": "TD50", "setting": "rat, strain Fischer 344, females, site: any site (literature study), lesion: several types, types named in the paper, dosed 103 weeks, study length 104 weeks", "value": "8.53 mg/kg/day and 16 mg/kg/day"},
      {"measurement": "TD50", "setting": "rat, strain Fischer 344, females, site: forestomach, lesion: squamous-cell carcinoma + squamous-cell papilloma, dosed 103 weeks, study length 104 weeks", "value": 3.53, "unit": "mg/kg/day"},
      {"measurement": "TD50", "setting": "rat, strain Fischer 344, females, site: forestomach, lesion: squamous-cell carcinoma, dosed 103 weeks, study length 104 weeks", "value": 5.93, "unit": "mg/kg/day"},
      {"measurement": "TD50", "setting": "rat, strain Fischer 344, females, site: forestomach, lesion: squamous-cell papilloma, dosed 103 weeks, study length 104 weeks", "value": 8.95, "unit": "mg/kg/day"},
      {"measurement": "TD50", "setting": "rat, strain Fischer 344, females, site: liver, lesion: hepatocellular adenoma + hepatocellular carcinoma + neoplastic nodule, dosed 103 weeks, study length 104 weeks", "value": 174, "unit": "mg/kg/day"},
      {"measurement": "TD50", "setting": "rat, strain Fischer 344, females, site: stomach, lesion: squamous-cell carcinoma + squamous-cell papilloma, dosed 103 weeks, study length 104 weeks", "value": 4.47, "unit": "mg/kg/day"},
      {"measurement": "TD50", "setting": "rat, strain Fischer 344, females, site: stomach, lesion: squamous-cell carcinoma, dosed 103 weeks, study length 104 weeks", "value": 5.1, "unit": "mg/kg/day"},
      {"measurement": "TD50", "setting": "rat, strain Fischer 344, females, site: stomach, lesion: squamous-cell papilloma, dosed 103 weeks, study length 104 weeks", "value": 45.5, "unit": "mg/kg/day"},
      {"measurement": "TD50", "setting": "rat, strain Fischer 344, males, site: any site (literature study), lesion: several types, types named in the paper, dosed 98 weeks, study length 104 weeks", "value": 2.43, "unit": "mg/kg/day"},
      {"measurement": "TD50", "setting": "rat, strain Fischer 344, males, site: any site (literature study), lesion: several types, types named in the paper, dosed 103 weeks, study length 104 weeks", "value": 4.61, "unit": "mg/kg/day"},
      {"measurement": "TD50", "setting": "rat, strain Fischer 344, males, site: forestomach, lesion: squamous-cell carcinoma + squamous-cell papilloma, dosed 103 weeks, study length 104 weeks", "value": 2.33, "unit": "mg/kg/day"},
      {"measurement": "TD50", "setting": "rat, strain Fischer 344, males, site: forestomach, lesion: squamous-cell carcinoma, dosed 103 weeks, study length 104 weeks", "value": 2.73, "unit": "mg/kg/day"},
      {"measurement": "TD50", "setting": "rat, strain Fischer 344, males, site: forestomach, lesion: squamous-cell papilloma, dosed 103 weeks, study length 104 weeks", "value": 8.16, "unit": "mg/kg/day"},
      {"measurement": "TD50", "setting": "rat, strain Fischer 344, males, site: liver, lesion: hepatocellular adenoma + hepatocellular carcinoma + neoplastic nodule, dosed 98 weeks, study length 104 weeks", "value": 114, "unit": "mg/kg/day"},
      {"measurement": "TD50", "setting": "rat, strain Fischer 344, males, site: liver, lesion: hepatocellular adenoma + hepatocellular carcinoma + neoplastic nodule, dosed 103 weeks, study length 104 weeks", "value": 640, "unit": "mg/kg/day"},
      {"measurement": "TD50", "setting": "rat, strain Fischer 344, males, site: pituitary gland, lesion: adenoma, NOS, dosed 98 weeks, study length 104 weeks", "value": 12.2, "unit": "mg/kg/day"},
      {"measurement": "TD50", "setting": "rat, strain Fischer 344, males, site: stomach, lesion: squamous-cell carcinoma + squamous-cell papilloma, dosed 98 weeks, study length 104 weeks", "value": 2.89, "unit": "mg/kg/day"},
      {"measurement": "TD50", "setting": "rat, strain Fischer 344, males, site: stomach, lesion: squamous-cell carcinoma, dosed 98 weeks, study length 104 weeks", "value": 3.06, "unit": "mg/kg/day"},
      {"measurement": "TD50", "setting": "rat, strain Fischer 344, males, site: stomach, lesion: squamous-cell papilloma, dosed 98 weeks, study length 104 weeks", "value": 24.7, "unit": "mg/kg/day"},
      {"measurement": "TD50", "setting": "rat, strain Fischer 344, males, site: testis, lesion: interstitial-cell tumor, dosed 98 weeks, study length 104 weeks", "value": 2.35, "unit": "mg/kg/day"}
    ]}
  ]
}
